Patent publication US9879050B2, “Substituted urea depsipeptide analogs as activators of the CLPP endopeptidase” (priority 2013, dated 2018)
Converted amounts (≈) assume the structure as drawn. Where two headings read alike, the source gives them in different places.

Columns and labels:
[1] = from C[C@H]1C[C@@H](C(=O)O[C@@H](C)[C@H](NC(=O)OCc2ccccc2)C(=O)OCC(=O)c2ccccc2)N(C(=O)[C@H](C)NC(=O)[C@@H]2CCCCN2C(=O)[C@@H]2CCCN2C(=O)OC(C)(C)C)C1, amide bond, pentafluorophenyl ester (EDC·HCl/pentafluorophenol), then aq NaHCO3, DCM, 1.24 mM, 25.0 °C, 4 steps
[2] = tested on: Vero (kidney epithelial cells; ATCC CCL-81); test: Cytotoxicity assay, CellTiter-Glo cell viability; assay type: cell-based; conditions: Vero cells, 72 hours
In short: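 Vero cells seeded overnight at 37 °C in DMEM with 10% FBS, then exposed to serial dilutions of compound for 72 h. Viability read by CellTiter-Glo luminescence; IC50 from duplicates, given as the range of two independent experiments.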

[3] = tested on: S. aureus NRS70; test: Minimal inhibitory concentration, microbroth dilution; assay type: cell-based
In short: (§1)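 Compound was diluted twofold in the appropriate broth. Bacterial suspension (approx. 10^5 cfu/mL) was then added in equal volume, giving a maximum test concentration of 200 μM. After aerobic overnight incubation at 37 °C, wells were inspected visually for growth.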

[4] = tested on: S. aureus ATCC 29213; test: as above; assay type: cell-based
In short: as §1

[5] = tested on: B. subtilis ATCC 23857; test: as above; assay type: cell-based
In short: as §1

[6] = tested on: S. aureus USA 300; test: as above; assay type: cell-based
In short: as §1

[7] = tested on: S. pneumoniae R6; test: as above; assay type: cell-based
In short: (§2)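 Twofold serial dilutions in broth per CLSI M7-A7 microbroth dilution, incubated aerobically overnight at 37° C. MIC read visually as lowest concentration preventing bacterial growth.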

[8] = tested on: S. pyogenes ATCC 700294; test: as above; assay type: cell-based
In short: as §2

[9] = tested on: S. aureus USA 300 ΔClpP; test: as above; assay type: cell-based, Staphylococcus aureus; conditions: ClpP inactivated strain
In short: as §1

[10] = Staphylococcus aureus, NRS70, read-out: Minimal Inhibitory Concentration S. aureus NRS70
[11] = Staphylococcus aureus, ATCC29213, read-out: Minimal Inhibitory Concentration S. aureus ATCC 29213
[12] = Bacillus subtilis, ATCC23857, read-out: Minimal Inhibitory Concentration B. subtilis ATCC 23857
[13] = Staphylococcus aureus, USA300, read-out: Minimal Inhibitory Concentration S. aureus USA 300
[14] = Streptococcus pneumoniae, R6, read-out: Minimal Inhibitory Concentration S. pneumoniae R6
[15] = Streptococcus pyogenes, ATCC700294, read-out: Minimal Inhibitory Concentration S. pyogenes ATCC 700294
[16] = Staphylococcus aureus, NRS70; read-out: Minimal Inhibitory Concentration S. aureus NRS70
[17] = Staphylococcus aureus, ATCC29213; read-out: Minimal Inhibitory Concentration S. aureus ATCC 29213
[18] = Bacillus subtilis, ATCC23857; read-out: Minimal Inhibitory Concentration B. subtilis ATCC 23857
[19] = Staphylococcus aureus, USA300; read-out: Minimal Inhibitory Concentration S. aureus USA 300
[20] = Streptococcus pneumoniae, R6; read-out: Minimal Inhibitory Concentration S. pneumoniae R6
[21] = Streptococcus pyogenes, ATCC700294; read-out: Minimal Inhibitory Concentration S. pyogenes ATCC 700294

Compound: C[C@H]1C[C@H]2C(=O)O[C@@H](C)[C@H](NC(=O)OCc3ccccc3)C(=O)N3CCC[C@H]3C(=O)N3CCCC[C@H]3C(=O)N[C@@H](C)C(=O)N2C1
- ring closure, yield of all isomers [1]: 74%

Compound: Cc1ccc(NC(=O)N[C@@H](Cc2cc(F)cc(F)c2)C(=O)N[C@@H]2C(=O)N3CCCC3C(=O)N(C)[C@@H]([C@H](C)O)C(=O)N[C@@H](C)C(=O)N3C[C@@H](C)CC3C(=O)O[C@H]2C)cc1 (stereo partly drawn) [Compound 35, (S)-3-(3,5-Difluorophenyl)-N-((2S,6S,9S,11aS,17S,18S,20aS)-9-((S)-1-Hydroxyethyl)-2,6,10,18-Tetramethyl-5,8,11,16,20-Pentaoxohexadecahydro-1H,5H,16H-Dipyrrolo[2,1-C:2′,1′-L][1]Oxa[4,7,10,13]Tetraazacyclohexadecin-17-Yl)-2-(3-(P-Tolyl)Ureido)Propanamide]
- IC50 [2]: 55.7 ± 3.6 µM
- MIC [3, 10]: 0.1 µM (≈ 0.0812 µg/mL)
- MIC [4, 11]: 0.2 µM (≈ 0.162 µg/mL)
- MIC [5, 12]: 0.2 µM (≈ 0.162 µg/mL)
- MIC [6, 13]: 0.2 µM (≈ 0.162 µg/mL)
- MIC [7, 14]: 0.049 µM (≈ 0.0398 µg/mL)
- MIC [8, 15]: 0.39 µM (≈ 0.317 µg/mL)
- Minimal Inhibitory Concentration S. aureus USA 300 ΔClpP [9]: 200 µM

Compound: CCc1ccc(NC(=O)N[C@@H](Cc2cc(F)cc(F)c2)C(=O)N[C@@H]2C(=O)N3CCCC3C(=O)N(C)[C@@H]([C@H](C)O)C(=O)N[C@@H](C)C(=O)N3C[C@H](C)CC3C(=O)O[C@H]2C)cc1 (stereo partly drawn) [Compound 42, (S)-3-(3,5-Difluorophenyl)-2-(3-(4-Ethylphenyl)Ureido)-N-((2R,6S,9S,11aS,17S,18S,20aS)-9-((S)-1-Hydroxyethyl)-2,6,10,18-Tetramethyl-5,8,11,16,20-Pentaoxohexadecahydro-1H,5H,16H-Dipyrrolo[2,1-C:2′,1′-L][1]Oxa[4,7,10,13]Tetraazacyclohexadecin-17-Yl)Propanamide]
- MIC [3, 16]: 0.02 µM (≈ 0.0165 µg/mL)
- MIC [4, 17]: 0.05 µM (≈ 0.0413 µg/mL)
- MIC [5, 18]: 0.01 µM (≈ 0.00826 µg/mL)
- MIC [6, 19]: 0.1 µM (≈ 0.0826 µg/mL)
- MIC [7, 20]: 0.01 µM (≈ 0.00826 µg/mL)
- MIC [8, 21]: 0.05 µM (≈ 0.0413 µg/mL)
- Minimal Inhibitory Concentration S. aureus USA 300 ΔClpP [9]: 100 µM

Compound: CCc1ccc(NC(=O)N[C@@H](Cc2cc(F)cc(F)c2)C(=O)N[C@@H]2C(=O)N3CCCC3C(=O)N(C)[C@@H]([C@H](C)O)C(=O)N[C@@H](C)C(=O)N3C[C@@H](C)CC3C(=O)O[C@H]2C)cc1 (stereo partly drawn) [Compound 37, (S)-3-(3,5-Difluorophenyl)-2-(3-(4-Ethylphenyl)Ureido)-N-((2S,6S,9S,11aS,17S,18S,20aS)-9-((S)-1-Hydroxyethyl)-2,6,10,18-Tetramethyl-5,8,11,16,20-Pentaoxohexadecahydro-1H,5H,16H-Dipyrrolo[2,1-C:2′,1′-L][1]Oxa[4,7,10,13]Tetraazacyclohexadecin-17-Yl)Propanamide]
- MIC [3, 16]: 0.1 µM (≈ 0.0826 µg/mL)
- MIC [4, 17]: 0.1 µM (≈ 0.0826 µg/mL)
- MIC [5, 18]: 0.05 µM (≈ 0.0413 µg/mL)
- MIC [6, 19]: 0.1 µM (≈ 0.0826 µg/mL)
- MIC [7, 20]: 0.024 µM (≈ 0.0198 µg/mL)
- MIC [8, 21]: 0.1 µM (≈ 0.0826 µg/mL)
- Minimal Inhibitory Concentration S. aureus USA 300 ΔClpP [9]: 100 µM

Compound: C[C@H]1CC2C(=O)O[C@@H](C)[C@H](NC(=O)[C@H](Cc3cc(F)cc(F)c3)NC(=O)Nc3ccc(OC(F)(F)F)cc3)C(=O)N3CCCC3C(=O)N(C)[C@@H]([C@H](C)O)C(=O)N[C@@H](C)C(=O)N2C1 (stereo partly drawn) [Compound 36, (S)-3-(3,5-Difluorophenyl)-N-((2S,6S,9S,11aS,17S,18S,20aS)-9-((S)-1-Hydroxyethyl)-2,6,10,18-Tetramethyl-5,8,11,16,20-Pentaoxohexadecahydro-1H,5H,16H-Dipyrrolo[2,1-C:2′,1′-L][1]Oxa[4,7,10,13]Tetraazacyclohexadecin-17-Yl)-2-(3-(4-(Trifluoromethoxy)Phenyl)Ureido)Propanamide]
- MIC [3, 16]: 0.05 µM (≈ 0.0441 µg/mL)
- MIC [4, 17]: 0.1 µM (≈ 0.0882 µg/mL)
- MIC [5, 18]: 0.1 µM (≈ 0.0882 µg/mL)
- MIC [6, 19]: 0.1 µM (≈ 0.0882 µg/mL)
- MIC [7, 20]: 0.024 µM (≈ 0.0212 µg/mL)
- MIC [8, 21]: 0.2 µM (≈ 0.176 µg/mL)
- Minimal Inhibitory Concentration S. aureus USA 300 ΔClpP [9]: 50 µM

Compound: Cc1ccc(NC(=O)N[C@@H](Cc2cc(F)cc(F)c2)C(=O)N[C@@H]2C(=O)N3C[C@H](O)CC3C(=O)N(C)[C@@H](C)C(=O)N[C@@H](C)C(=O)N3C[C@@H](C)CC3C(=O)O[C@H]2C)cc1 (stereo partly drawn) [Compound 31, (S)-3-(3,5-Difluorophenyl)-N-((2S,6S,9S,11aS,13R,17S,18S,20aS)-13-Hydroxy-2,6,9,10,18-Pentamethyl-5,8,11,16,20-Pentaoxohexadecahydro-1H,5H,16H-Dipyrrolo[2,1-C:2′,1′-L][1]Oxa[4,7,10,13]Tetraazacyclohexadecin-17-Yl)-2-(3-(P-Tolyl)Ureido)Propanamide]
- IC50 [2]: > 100 µM
- MIC [3, 10]: 0.39 µM (≈ 0.311 µg/mL)
- MIC [4, 11]: 0.39 µM (≈ 0.311 µg/mL)
- MIC [5, 12]: 0.39 µM (≈ 0.311 µg/mL)
- MIC [7, 14]: 0.195 µM (≈ 0.156 µg/mL)
- MIC [8, 15]: 0.78 µM (≈ 0.622 µg/mL)
- Minimal Inhibitory Concentration S. aureus USA 300 ΔClpP [9]: >200 µM

Compound: C[C@@H]1CC2C(=O)O[C@@H](C)[C@H](NC(=O)[C@H](Cc3cc(F)cc(F)c3)NC(=O)Nc3ccc(OC(F)(F)F)cc3)C(=O)N3CCCC3C(=O)N(C)[C@@H]([C@H](C)O)C(=O)N[C@@H](C)C(=O)N2C1 (stereo partly drawn) [Compound 41, (S)-3-(3,5-Difluorophenyl)-N-((2R,6S,9S,11aS,17S,18S,20aS)-9-((S)-1-Hydroxyethyl)-2,6,10,18-Tetramethyl-5,8,11,16,20-Pentaoxohexadecahydro-1H,5H,16H-Dipyrrolo[2,1-C:2′,1′-L][1]Oxa[4,7,10,13]Tetraazacyclohexadecin-17-Yl)-2-(3-(4-(Trifluoromethoxy)Phenyl)Ureido)Propanamide]
- MIC [3, 16]: 0.01 µM (≈ 0.00882 µg/mL)
- MIC [4, 17]: 0.02 µM (≈ 0.0176 µg/mL)
- MIC [5, 18]: 0.01 µM (≈ 0.00882 µg/mL)
- MIC [6, 19]: 0.02 µM (≈ 0.0176 µg/mL)
- MIC [7, 20]: 0.02 µM (≈ 0.0176 µg/mL)
- MIC [8, 21]: 0.1 µM (≈ 0.0882 µg/mL)
- Minimal Inhibitory Concentration S. aureus USA 300 ΔClpP [9]: 50 µM

Compound: Cc1ccc(NC(=O)N[C@@H](Cc2cc(F)cc(F)c2)C(=O)N[C@@H]2C(=O)N3CCCC3C(=O)N(C)[C@@H]([C@H](C)O)C(=O)N[C@@H](C)C(=O)N3C[C@H](C)CC3C(=O)O[C@H]2C)cc1 (stereo partly drawn) [Compound 38, (S)-3-(3,5-Difluorophenyl)-N-((2R,6S,9S,11aS,17S,18S,20aS)-9-((S)-1-Hydroxyethyl)-2,6,10,18-Tetramethyl-5,8,11,16,20-Pentaoxohexadecahydro-1H,5H,16H-Dipyrrolo[2,1-C:2′,1′-L][1]Oxa[4,7,10,13]Tetraazacyclohexadecin-17-Yl)-2-(3-(P-Tolyl)Ureido)Propanamide]
- IC50 [2]: 46.1 ± 5.5 µM
- MIC [3, 10]: 0.05 µM (≈ 0.0406 µg/mL)
- MIC [4, 11]: 0.05 µM (≈ 0.0406 µg/mL)
- MIC [5, 12]: 0.05 µM (≈ 0.0406 µg/mL)
- MIC [6, 13]: 0.1 µM (≈ 0.0812 µg/mL)
- MIC [7, 14]: 0.02 µM (≈ 0.0162 µg/mL)
- MIC [8, 15]: 0.1 µM (≈ 0.0812 µg/mL)
- Minimal Inhibitory Concentration S. aureus USA 300 ΔClpP [9]: 200 µM
